“Also recorded” adds a separate entry of the source.
Columns and labels:
[1] = system: Ki67; test: Ki67 immunohistochemistry of malignant lymph node biopsies; type: in vivo, dog; conditions: 24 hours post peptide vs pre; 10 high power fields
Description: (§1) Immunohistochemical analysis was performed on 5 micron sections of formalin fixed paraffin embedded lymph node tissue from dogs with spontaneous DLBCL using a DAKO automatic universal staining system. Sections were heated in a 60°C oven for 1 hour, depararaffinized in PRO PAR clearant and rehydrated in progressively decreasing grades of ethanol. Antigen retrieval was performed by boiling sections in sodium citrate buffer, pH ∼9.0 for 15 minutes. Endogenous peroxidase was blocked with 3% hydrogen peroxide. For Ki67 staining, a 1∶50 dilution of a monoclonal mouse anti-human antibody (Clone MIB-1, DAKO) was used and immunodetection was performed using a biotinylated goat anti-rabbit/anti-mouse immunoglobulin and SA-HRP (LSAB2 kit, DAKO, Carpinteria, CA). For IRF-4 staining, a 1∶200 dilution of a polyclonal mouse anti human antibody (DAKO, M7259) was used and immunodetection was performed using a peroxidase polymer conjugated anti-mouse secondary antibody system (ImmPRESS Anti-mouse Ig peroxidase polymer detection kit). In all cases, antibody binding was detected using 3,3′-diaminobenzidine solution and tissues were counterstained with hematoxylin. Slides were viewed using a Nikon E600 infinity corrected upright microscope. […] Apoptotic cells were detected using the cell death detection kit (Roche, Indianapolis, IA) following the manufacturer's instructions. […]

[2] = Plasma pharmacokinetics after intravenous infusion (mass spectrometry)
Description: In this phase I dose escalation clinical trial, both treatment-naïve and relapsed dogs were enrolled. NBD peptide was administered according to a standard 3+3 trial design. The dose endpoint was the dose at which canonical NF-κB signaling was inhibited within malignant lymph nodes. Peptide was reconstituted to 50 mM in sterile DMSO and diluted in 20 mls of lactated Ringers solution immediately prior to intravenous administration at a constant rate of 20 ml/hr. Twenty-four hours post NBD peptide administration, excisional or Tru-cut biopsies of a peripheral malignant lymph node were taken for Western blot, qRT-PCR and histopathological analysis.
EDTA anti-coagulated blood samples were taken at 0, 30, 60, 90, 120, 240, 360 mins and 24 hours post infusion. Plasma was separated by centrifugation and stored at −80°C prior to pharmacokinetic analysis. Mass spectrometer analysis of NBD peptide in plasma samples was performed by Frontage Laboratories, Exton, PA and pharmacokinetic (PK) parameters were determined using WinNonlin v5.2 software. The lower limit of quantification (LLOQ) was set to 10 ng/ml however, in some instances the LLOQ was changed to 20 ng/ml because of potential interference in the samples.

[3] = system: malignant lymph nodes; test: TUNEL staining of malignant lymph node biopsies; type: in vivo, dog; conditions: 24 hours post peptide vs pre; tissue available from 9 dogs
Description: as §1

[4] = system: malignant node; conditions: local, intranodal administration; cited from earlier work
Description: (§2) Pet dogs that develop Non-Hodgkins Lymphoma (NHL) are recognized as a clinically relevant, spontaneous large animal model of the human disease, [27]–[31]. […] Furthermore, tissue microarrays from lymphomatous canine tissue confirmed the presence of constitutive NF-κB activity and pharmacological inhibition of IKK leads to in ...

[5] = system: primary malignant canine B cells; conditions: in vitro, cited from earlier work
Description: as §2

[6] = system: constitutive canonical NF-κB signaling (phospho-IKKα/β:IKKβ); test: Immunoblot and densitometry of phospho-IKK in malignant lymph node biopsies, pre and 24 h post peptide; type: in vivo, dog; conditions: malignant lymph node biopsy 24 hours after single 1 h i.v. infusion, 0.5-2 mg/kg, vs pre-treatment; paired samples from ten of eleven dogs
Description: Lymph node biopsy samples were mechanically dissociated in RPMI and red blood cells were removed using ACK lysis buffer (Gibco) according to manufacturer's instructions. Cells were lysed in 50 mM Tris-HCL containing 1% NP-40, 150 mM NaCl, 2.5 mM EDTA, 5% glycerol, a 1∶50 dilution of Protease Inhibitor Cocktail and 1∶50 dilutions of Phosphatase Inhibitor Cocktails 2 and 3 (Sigma-Aldrich, Saint Louis, MO). Samples were centrifuged and protein concentrations were determined by micro BCA assay (Thermo Scientific, Rockford, IL). Proteins from whole cell extracts were separated by SDS-PAGE (10%) followed by transfer to PVDF membrane. Membranes were probed with polyclonal rabbit anti-human antibodies against phospho-IKKα/β (16A6), IKKβ (L570), phospho-IκBα (14D4), mouse anti-human IκBα (L35A5) and β-actin (4967) (Cell Signaling, Danvers, MA). An HRP-conjugated donkey anti-rabbit or anti-mouse IgG was used as the secondary detection antibody (Amersham, Piscataway, NJ). Blots were developed using ECL Plus (Amersham, Piscataway, NJ). Densitometry was performed using ImageJ software and integrated density values for each band were obtained using the Analyze Particles function.

[7] = system: dogs with spontaneous ABC-like DLBCL; test: Phase I 3+3 dose escalation: adverse events and toxicity (VCOG-CTCAE); type: in vivo, dog
Description: The clinical trial protocol was fully approved by the University of Pennsylvania's Institutional Animal Care and Use Committee (Privately Owned Animal Protocol number: 803765). Only dogs with full written informed owner consent were eligible for enrollment. […] The histopathological diagnosis of DLBCL and cytological confirmation of large B cell lymphoma were made by board certified veterinary pathologists (M.G., and A.D., see acknowledgements) and by a board certified clinical pathologist (R.P.) respectively. Only dogs with DLBCL and constitutive NF-κB activity within their malignant lymph nodes as determined by the presence of phospho-IKK, phospho-IκBα and phospho-p65 were eligible to receive NBD peptide.
(§3) Tumor burden was calculated by measuring three dimensions (length, width and height) for each malignant lymph node. The mass of each node was calculated as previously described and the sum of measured lymph node mass was considered as total tumor mass. Response to NBD peptide was evaluated according to the Veterinary Cooperative Oncology Group criteria for assessment of response in peripheral nodal lymphoma, adapted for use in dogs from the published RECIST criteria. The Veterinary Cooperative Oncology Group Common Terminology for Adverse Events, version 1.0 was used to grade adverse events.

[8] = system: dogs with spontaneous ABC-like DLBCL; test: Clinical response and survival after NBD peptide plus chemotherapy; type: in vivo, dog
Description: as §3

[9] = system: malignant lymph nodes; test: Measureable tumor mass before and 24 h after peptide; type: in vivo, dog; conditions: 24 hours after NBD peptide; measurements available for 10 treated dogs
Description: as §3

[10] = Hematological and biochemical parameters before and one week after treatment; type: in vivo, dog
Description: In this phase I dose escalation clinical trial, both treatment-naïve and relapsed dogs were enrolled. NBD peptide was administered according to a standard 3+3 trial design. […] Peptide was reconstituted to 50 mM in sterile DMSO and diluted in 20 mls of lactated Ringers solution immediately prior to intravenous administration at a constant rate of 20 ml/hr. […] Following the post-treatment biopsy, dogs received induction or rescue chemotherapy as determined by their primary attending veterinary oncologist and a short course of prophylactic antibiotics (amoxicillin). All dogs received a follow-up full clinical examination, CBC, CS and urinalysis one week post NBD peptide.

[11] = system: Cyclin D1; test: qRT-PCR of Cyclin D1 in malignant lymph node biopsies; type: in vivo, dog; conditions: 24 hour post-peptide biopsy normalized to pre-treatment; β-actin control, triplicate
Description: (§4) Lymph node biopsies were immediately placed in RNAlater (Ambion, Austin, TX) and stored at –80°C prior to RNA extraction. Total RNA extraction was performed using the RNeasy Mini Kit (Qiagen, Valencia, CA). Reverse transcription was performed using random hexamers and Superscript II reverse transcriptase (Invitrogen Corp., Carlsbad. CA, USA) according to the manufacturer's instructions. Primer sequences for canine A1, A20, Bcl-XL, c-FLIP, Cyclin D1, Bcl-2, XIAP and β-actin have been previously described, [35]. Primers were synthesized by Invitrogen Corp. Real-time PCR assays were performed using SYBR Green (Fermentas, Glen Burnie, Maryland). Samples were run in triplicate using standard conditions on an ABI 7500 sequence detector (Applied Biosystems, Carlsbad, CA) and data were analyzed using β-actin as an endogenous control. Dissociation curves were performed after each experiment to confirm the specificity of product amplification. Statistical analysis was performed using a two-tailed Student's ‘t’ test where statistical significance = p<0.05.

[12] = system: rats, mice and piglets; conditions: doses ranging from 0.75 mg/kg to 20 mg/kg; cited from earlier work
Description: In this study, as a consequence of dru ...

[13] = system: NF-κB target genes (A1, c-FLIP, XIAP, Bcl-XL, Bcl-2 and A20); test: qRT-PCR of pro-survival NF-κB target genes in malignant lymph nodes; type: in vivo, dog
Description: as §4

[14] = one week after NBD peptide plus induction or rescue chemotherapy

Substance: NEMO Binding Domain (NBD) peptide [NBD peptide]
- dogs with a statistically significant reduction in the number of Ki67+ cells [1]: Four
- plasma concentrations of NBD peptide at the doses studied ([2]; 0.5-2.0 mg/kg i.v.): very low
- NBD peptide in plasma after 60 mins ([2]; any dog, sampling up to 24 hours post infusion, LLOQ 10 or 20 ng/ml): not detected; also recorded: undetectable
- dogs with a trend towards an increase in apoptosis (TUNEL) [3]: Five
- effect on tumor burden [4]: decreases tumor burden
- effect on cell survival ([5]; NBD peptide fused to AntP): rapid apoptosis
- effect on phosphorylation of IKK and IκBα ([5]; NBD peptide fused to the cell penetrating Antennapedia peptide (AntP)): inhibits phosphorylation
- dogs showing reductions in the phosphorylation status of IKK (pIKK:IKK) [6]: 6/10 and Six out of ten
- acute or chronic toxicities at any dose evaluated ([7]; 0.5-2.0 mg/kg single i.v. dose, clinical, hematological and biochemical parameters): no significant acute or chronic toxicities
- safety of intravenous administration ([7]; <2 mg/kg i.v.): safe
- dogs that became drowsy and developed moderate tachycardia and hypertension during infusion ([7]; Group 1, 0.5 mg/kg i.v., three dogs, no premedication, mild, transient, resolved when infusion was discontinued): two
- additional dogs with transient hypertension ([7]; Group 2, 1 mg/kg i.v., premedicated with ondansetron and diphenhydramine): one
- maximum tolerated dose of NBD peptide in dogs ([7]; doses 0.5-2.0 mg/kg i.v.): not reached
- dogs that achieved clinical remission (CR) ([8]; NBD peptide plus chemotherapy, eleven dogs, including 5 dogs treated at first relapse): Seven
- dogs that survived greater than 16 months ([8]; after peptide administration and chemotherapy): three
- dogs with greater than 20% reduction in measureable tumor mass [9]: Five out of 10
- dogs with significant but asymptomatic increases in liver values (ALT, ALKP, AST and GGT) one week later ([10]; Group 2, 1 mg/kg, dog also received L'asparaginase 24 hrs after peptide, values returned to baseline two weeks later): One
- dogs with elevated ALKP prior to peptide that showed further increases in ALKP post treatment ([10]; all previously treated for relapsed lymphoma, one week after NBD peptide plus chemotherapy): 4/11
- dogs with an increase in platelet count [10, 14]: 8/11
- dogs with mild decreases in lymphocyte counts [10, 14]: 9/11
- dogs with mild decreases in hematocrit ([10]; one week after NBD peptide plus induction or rescue chemotherapy, most values within the normal range): 9/11
- dogs with a decrease in the expression of Cyclin D1 [11]: Eight out of eleven
- tolerability of systemic administration [12]: well tolerated
- inhibition of NF-κB target genes in the one dog that received 2 mg/kg (dog 11) ([13]; 2 mg/kg i.v., 24 hours after peptide, compared with the other dogs): most significant inhibition
- dogs in which the expression of 3 or more target genes was reduced ([13]; 24 hours after NBD peptide, six genes evaluated): 6 out of 11

Reference: paper PMC4010398, “A Phase I Clinical Trial of Systemically Delivered NEMO Binding Domain Peptide in Dogs with Spontaneous Activated B-Cell like Diffuse Large B-Cell Lymphoma” (PLoS ONE, 2014)
